In ChEMBL document CHEMBL1146863, “1,4-Dihydroindeno[1,2-c]pyrazoles as novel multitargeted receptor tyrosine kinase inhibitors” (Bioorg Med Chem Lett, 2006):

Tests used:
[1] = target: Mast/stem cell growth factor receptor Kit (Homo sapiens, UniProt P10721)
[2] = target: Vascular endothelial growth factor receptor 1 (Homo sapiens, UniProt P17948)
[3] = target: Vascular endothelial growth factor receptor 2 (Homo sapiens, UniProt P35968)
Cytochrome P450 3A4 = Cytochrome P450 3A4 (Homo sapiens, UniProt P08684); assay: Inhibition of CYP3A4 in human liver microsome; assay type: ADME
Angiopoietin-1 receptor = Angiopoietin-1 receptor (Homo sapiens, UniProt Q02763); assay: Inhibition of Tie2 at 1 mM ATP by HTRF assay

Sequence of Vascular endothelial growth factor receptor 2 (P35968 whole entry): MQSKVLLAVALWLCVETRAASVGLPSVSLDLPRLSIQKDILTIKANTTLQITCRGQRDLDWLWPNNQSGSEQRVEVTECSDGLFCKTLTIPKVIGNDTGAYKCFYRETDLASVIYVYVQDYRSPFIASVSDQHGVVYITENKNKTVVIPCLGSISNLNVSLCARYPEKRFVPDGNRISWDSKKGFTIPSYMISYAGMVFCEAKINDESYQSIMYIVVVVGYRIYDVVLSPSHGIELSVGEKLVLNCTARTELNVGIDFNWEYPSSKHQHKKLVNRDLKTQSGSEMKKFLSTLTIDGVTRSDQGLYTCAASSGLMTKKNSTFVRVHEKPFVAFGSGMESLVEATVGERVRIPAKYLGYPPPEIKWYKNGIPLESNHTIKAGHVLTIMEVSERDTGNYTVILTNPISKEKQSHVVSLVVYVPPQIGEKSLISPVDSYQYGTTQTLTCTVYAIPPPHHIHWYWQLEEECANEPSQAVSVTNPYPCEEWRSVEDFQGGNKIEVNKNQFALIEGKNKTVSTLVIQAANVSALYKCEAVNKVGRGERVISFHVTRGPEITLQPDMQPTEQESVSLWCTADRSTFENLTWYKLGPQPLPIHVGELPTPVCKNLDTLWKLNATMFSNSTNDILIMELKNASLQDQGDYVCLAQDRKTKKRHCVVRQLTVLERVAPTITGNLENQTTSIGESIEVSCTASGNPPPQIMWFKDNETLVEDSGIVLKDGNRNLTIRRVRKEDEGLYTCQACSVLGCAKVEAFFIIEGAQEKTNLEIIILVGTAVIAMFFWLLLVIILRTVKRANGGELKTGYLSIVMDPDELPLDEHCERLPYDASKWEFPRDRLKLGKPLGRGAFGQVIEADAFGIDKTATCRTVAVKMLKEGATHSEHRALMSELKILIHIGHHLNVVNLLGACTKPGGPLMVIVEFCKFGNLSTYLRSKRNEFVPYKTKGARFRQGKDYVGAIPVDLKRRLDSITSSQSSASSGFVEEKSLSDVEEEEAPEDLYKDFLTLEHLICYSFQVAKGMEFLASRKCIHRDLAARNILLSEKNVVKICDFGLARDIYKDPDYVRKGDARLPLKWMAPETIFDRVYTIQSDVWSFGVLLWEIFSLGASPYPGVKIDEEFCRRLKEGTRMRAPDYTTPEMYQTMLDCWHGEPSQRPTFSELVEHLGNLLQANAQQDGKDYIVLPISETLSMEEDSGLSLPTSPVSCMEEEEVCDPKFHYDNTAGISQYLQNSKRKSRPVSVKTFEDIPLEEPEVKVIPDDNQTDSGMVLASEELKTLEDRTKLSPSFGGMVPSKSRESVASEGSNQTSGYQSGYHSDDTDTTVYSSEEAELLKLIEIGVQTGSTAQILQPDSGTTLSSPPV
Sequence of Vascular endothelial growth factor receptor 1 (P17948 whole entry): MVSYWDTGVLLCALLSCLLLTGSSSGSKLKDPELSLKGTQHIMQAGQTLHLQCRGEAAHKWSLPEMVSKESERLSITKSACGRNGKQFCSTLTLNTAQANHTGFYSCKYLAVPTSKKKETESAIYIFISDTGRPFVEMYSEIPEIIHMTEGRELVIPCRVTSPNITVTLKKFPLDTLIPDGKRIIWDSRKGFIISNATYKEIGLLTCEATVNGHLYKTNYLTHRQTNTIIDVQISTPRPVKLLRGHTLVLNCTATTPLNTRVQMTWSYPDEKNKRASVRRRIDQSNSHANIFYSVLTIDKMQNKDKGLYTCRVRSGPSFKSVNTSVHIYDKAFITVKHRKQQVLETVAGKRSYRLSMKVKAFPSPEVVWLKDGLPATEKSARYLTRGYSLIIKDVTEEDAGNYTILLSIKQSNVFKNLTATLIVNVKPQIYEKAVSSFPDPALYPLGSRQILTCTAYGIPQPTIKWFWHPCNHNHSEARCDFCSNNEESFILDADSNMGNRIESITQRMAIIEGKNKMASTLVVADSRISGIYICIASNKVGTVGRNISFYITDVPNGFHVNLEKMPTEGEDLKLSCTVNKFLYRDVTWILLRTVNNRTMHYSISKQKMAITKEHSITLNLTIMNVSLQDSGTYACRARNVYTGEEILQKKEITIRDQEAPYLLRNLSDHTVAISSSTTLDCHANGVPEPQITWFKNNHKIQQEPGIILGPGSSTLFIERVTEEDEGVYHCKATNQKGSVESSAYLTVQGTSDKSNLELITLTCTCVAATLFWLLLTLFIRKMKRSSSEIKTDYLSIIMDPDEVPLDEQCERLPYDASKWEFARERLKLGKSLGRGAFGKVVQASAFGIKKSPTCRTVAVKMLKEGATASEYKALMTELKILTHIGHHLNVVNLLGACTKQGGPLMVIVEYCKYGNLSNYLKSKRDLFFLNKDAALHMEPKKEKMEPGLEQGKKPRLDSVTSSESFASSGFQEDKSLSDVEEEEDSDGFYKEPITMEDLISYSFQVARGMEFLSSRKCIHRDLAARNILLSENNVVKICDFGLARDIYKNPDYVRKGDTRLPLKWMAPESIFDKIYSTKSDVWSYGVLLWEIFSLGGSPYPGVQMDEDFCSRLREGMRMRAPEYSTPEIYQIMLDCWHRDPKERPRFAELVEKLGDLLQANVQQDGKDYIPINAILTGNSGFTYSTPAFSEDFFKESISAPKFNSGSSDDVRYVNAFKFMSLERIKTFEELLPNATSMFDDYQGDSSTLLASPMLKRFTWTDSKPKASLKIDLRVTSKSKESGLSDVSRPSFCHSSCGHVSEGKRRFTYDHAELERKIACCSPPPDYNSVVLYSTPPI
Sequence of Mast/stem cell growth factor receptor Kit (P10721 whole entry): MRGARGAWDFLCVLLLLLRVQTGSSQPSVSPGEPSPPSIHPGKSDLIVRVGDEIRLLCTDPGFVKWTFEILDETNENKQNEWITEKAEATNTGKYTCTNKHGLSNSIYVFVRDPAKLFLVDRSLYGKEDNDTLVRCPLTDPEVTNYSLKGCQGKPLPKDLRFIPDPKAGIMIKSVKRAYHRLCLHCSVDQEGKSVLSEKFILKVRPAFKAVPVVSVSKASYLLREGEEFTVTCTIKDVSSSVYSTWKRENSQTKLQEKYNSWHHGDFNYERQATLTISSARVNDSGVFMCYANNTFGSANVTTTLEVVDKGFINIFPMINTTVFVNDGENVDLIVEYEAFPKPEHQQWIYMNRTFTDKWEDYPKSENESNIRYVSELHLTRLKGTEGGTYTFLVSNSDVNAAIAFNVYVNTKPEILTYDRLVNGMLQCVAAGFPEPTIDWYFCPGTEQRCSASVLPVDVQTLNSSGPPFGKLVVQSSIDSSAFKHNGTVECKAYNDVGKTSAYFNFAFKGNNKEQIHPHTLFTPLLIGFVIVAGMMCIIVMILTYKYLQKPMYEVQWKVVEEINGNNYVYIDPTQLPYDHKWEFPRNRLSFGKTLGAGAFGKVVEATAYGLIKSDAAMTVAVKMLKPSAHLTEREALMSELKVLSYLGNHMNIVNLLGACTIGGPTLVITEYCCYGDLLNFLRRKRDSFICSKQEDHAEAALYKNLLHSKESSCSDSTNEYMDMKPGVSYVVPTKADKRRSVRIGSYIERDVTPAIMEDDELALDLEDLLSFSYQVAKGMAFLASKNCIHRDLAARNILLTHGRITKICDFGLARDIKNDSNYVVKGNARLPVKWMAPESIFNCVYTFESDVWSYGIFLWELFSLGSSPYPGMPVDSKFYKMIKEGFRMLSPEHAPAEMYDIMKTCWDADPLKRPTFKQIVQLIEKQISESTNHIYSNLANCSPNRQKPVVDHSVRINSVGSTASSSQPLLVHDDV
Sequence of Cytochrome P450 3A4 (P08684 whole entry): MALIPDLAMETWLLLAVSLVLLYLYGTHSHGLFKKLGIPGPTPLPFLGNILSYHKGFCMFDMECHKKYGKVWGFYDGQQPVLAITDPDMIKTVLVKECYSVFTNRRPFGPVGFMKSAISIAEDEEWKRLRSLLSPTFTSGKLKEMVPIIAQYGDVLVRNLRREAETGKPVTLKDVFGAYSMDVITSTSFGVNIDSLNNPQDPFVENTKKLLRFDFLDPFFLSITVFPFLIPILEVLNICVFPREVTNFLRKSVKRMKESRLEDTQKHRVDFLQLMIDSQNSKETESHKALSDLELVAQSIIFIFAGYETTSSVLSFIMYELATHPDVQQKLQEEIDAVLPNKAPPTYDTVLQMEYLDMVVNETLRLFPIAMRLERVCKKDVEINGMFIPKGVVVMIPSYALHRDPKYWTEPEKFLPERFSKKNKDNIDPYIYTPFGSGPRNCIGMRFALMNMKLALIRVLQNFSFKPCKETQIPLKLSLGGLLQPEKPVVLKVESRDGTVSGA

SMILES | IC50 [1] [nM] | IC50 [2] [nM] | IC50 [3] [nM] | IC50 (Cytochrome P450 3A4) [nM] | IC50 (Angiopoietin-1 receptor) [nM]
CN1CCN(Cc2ccc3c(c2)Cc2c(-c4ccc(CNC(=O)Nc5ccc(C(F)(F)F)cc5)s4)n[nH]c2-3)CC1 | 13 | 4200 | – | – | –
Cc1cccc(NC(=O)NCc2ccc(-c3n[nH]c4c3Cc3ccc(CN5CCN(C)CC5)cc3-4)s2)c1 | 69 | 592 | – | – | –
Cc1cccc(N/C(=N/Cc2ccc(-c3n[nH]c4c3Cc3cc(CN5CCN(C)CC5)ccc3-4)s2)NC#N)c1 | – | – | > 50000 | – | –
c1cn(Cc2ccc3c(c2)-c2[nH]nc(-c4ccsc4)c2C3)cn1 | – | – | 147 | 254 | –
CN1CCN(Cc2ccc3c(c2)Cc2c-3n[nH]c2-c2ccc(CNC(=O)Nc3cccc(C(F)(F)F)c3)s2)CC1 | 17 | 863 | – | – | –
Cc1cccc(NC(=O)N(Cc2ccc(-c3[nH]nc4c3Cc3cc(CN5CCN(C)CC5)ccc3-4)s2)CC(C)C)c1 | 17200 | 1590 | – | – | –
Cc1cccc(N(C)C(=O)N(C)Cc2ccc(-c3[nH]nc4c3Cc3cc(CN5CCN(C)CC5)ccc3-4)s2)c1 | 26800 | 27900 | – | – | –
CN1CCN(Cc2ccc3c(c2)Cc2c-3n[nH]c2-c2csc(CNS(=O)(=O)Cc3ccccc3)c2)CC1 | – | – | > 50000 | – | –
Cc1cccc(N(C)C(=O)NCc2ccc(-c3[nH]nc4c3Cc3cc(CN5CCN(C)CC5)ccc3-4)s2)c1 | 139 | 14600 | – | – | –
CN1CCN(Cc2ccc3c(c2)Cc2c(-c4ccc(CNC(=O)Nc5cc(Cl)cc(Cl)c5)s4)n[nH]c2-3)CC1 | 38 | 2280 | – | – | –
CCCN(Cc1ccc(-c2[nH]nc3c2Cc2cc(CN4CCN(C)CC4)ccc2-3)s1)C(=O)Nc1cccc(C)c1 | 75 | 59 | – | – | –
CN1CCN(Cc2ccc3c(c2)Cc2c-3n[nH]c2-c2ccc(CNC(=O)Nc3ccccc3C(F)(F)F)s2)CC1 | 23800 | > 50000 | – | – | –
Cc1cc(C)cc(NC(=O)NCc2ccc(-c3n[nH]c4c3Cc3cc(CN5CCN(C)CC5)ccc3-4)s2)c1 | 27 | 1670 | – | – | –
Cc1ccc2nc(NCc3ccc(-c4[nH]nc5c4Cc4cc(CN6CCN(C)CC6)ccc4-5)s3)[nH]c2c1 | – | – | > 50000 | – | –
CN1CCN(Cc2ccc3c(c2)Cc2c(-c4ccc(CNC(=O)Nc5ccccc5Cl)s4)n[nH]c2-3)CC1 | 921 | – | – | – | –
Cc1ccccc1NC(=O)NCc1ccc(-c2[nH]nc3c2Cc2cc(CN4CCN(C)CC4)ccc2-3)s1 | 1390 | 25000 | – | – | –
CN1CCN(Cc2ccc3c(c2)-c2[nH]nc(-c4ccc(CNC(=O)Nc5ccccc5)s4)c2C3)CC1 | 101 | 3780 | – | – | –
Cc1cccc(NC(=O)N(Cc2ccc(-c3[nH]nc4c3Cc3cc(CN5CCN(C)CC5)ccc3-4)s2)C2CC2)c1 | 136 | 38 | – | – | –
Cc1cccc(NC(=O)NCc2ccc(-c3n[nH]c4c3Cc3cc(CN5CCN(C)CC5)ccc3-4)s2)c1 | 86 | 2900 | – | – | –
CN1CCN(Cc2ccc3c(c2)-c2[nH]nc(-c4ccsc4)c2C3)CC1 | – | – | – | > 10000 | –
COCCN(Cc1ccc(-c2[nH]nc3c2Cc2cc(CN4CCN(C)CC4)ccc2-3)s1)C(=O)Nc1cccc(C)c1 | > 50000 | 2260 | – | – | –
Cc1cccc(NC(=O)N(CCC(C)C)Cc2ccc(-c3[nH]nc4c3Cc3cc(CN5CCN(C)CC5)ccc3-4)s2)c1 | 4840 | 3620 | – | – | –

The remaining lines, values ahead:

IC50 [1] [nM] | IC50 [2] [nM] | IC50 [3] [nM] | IC50 (Cytochrome P450 3A4) [nM] | IC50 (Angiopoietin-1 receptor) [nM] | SMILES
36 | 64 | – | – | – | CN1CCN(Cc2ccc3c(c2)-c2n[nH]c(-c4ccc(CN(C)C(=O)Nc5ccc(Cl)cc5)s4)c2C3)CC1
28 | 36 | – | – | – | CN1CCN(Cc2ccc3c(c2)-c2n[nH]c(-c4ccc(CN(C)C(=O)Nc5ccc(Cl)c(Cl)c5)s4)c2C3)CC1
17 | 38 | – | – | – | CN1CCN(Cc2ccc3c(c2)-c2n[nH]c(-c4ccc(CN(C)C(=O)Nc5ccc(Br)cc5)s4)c2C3)CC1
56 | 19 | – | – | – | CN1CCN(Cc2ccc3c(c2)Cc2c-3n[nH]c2-c2ccc(CN(C)C(=O)Nc3cccc(OC(F)(F)F)c3)s2)CC1
38 | 20 | – | – | – | CN1CCN(Cc2ccc3c(c2)-c2n[nH]c(-c4ccc(CN(C)C(=O)Nc5cccc(Cl)c5)s4)c2C3)CC1
2190 | 131 | – | – | – | CCN(Cc1ccc(-c2[nH]nc3c2Cc2cc(CN4CCN(C)CC4)ccc2-3)s1)C(=O)Nc1cccc(C)c1
18 | 14 | – | – | 259 | CN1CCN(Cc2ccc3c(c2)-c2n[nH]c(-c4ccc(CN(C)C(=O)Nc5cccc(C(F)(F)F)c5)s4)c2C3)CC1
25 | 33 | – | – | – | CN1CCN(Cc2ccc3c(c2)Cc2c-3n[nH]c2-c2ccc(CN(C)C(=O)Nc3cc(F)cc(C(F)(F)F)c3)s2)CC1
59 | 83 | – | – | – | CN1CCN(Cc2ccc3c(c2)-c2n[nH]c(-c4ccc(CN(C)C(=O)Nc5ccc(F)cc5)s4)c2C3)CC1
19 | 25 | – | – | – | CN1CCN(Cc2ccc3c(c2)-c2n[nH]c(-c4ccc(CN(C)C(=O)Nc5ccc(OC(F)(F)F)cc5)s4)c2C3)CC1
14700 | 4720 | – | – | – | Cc1cccc(NC(=O)N(C)Cc2ccc(-c3[nH]nc4c3Cc3cc(CN5CCN(C)CC5)ccc3-4)s2)c1
> 50000 | 3840 | – | – | – | CN1CCN(Cc2ccc3c(c2)Cc2c-3n[nH]c2-c2ccc(CN(C)C(=O)Nc3ccccc3Cl)s2)CC1
27 | 613 | – | – | – | Cc1ccc(NC(=O)NCc2ccc(-c3n[nH]c4c3Cc3ccc(CN5CCN(C)CC5)cc3-4)s2)cc1
674 | 2060 | – | – | – | Cc1ccccc1NC(=O)NCc1ccc(-c2[nH]nc3c2Cc2ccc(CN4CCN(C)CC4)cc2-3)s1
237 | 1350 | – | – | – | CON(Cc1ccc(-c2[nH]nc3c2Cc2cc(CN4CCN(C)CC4)ccc2-3)s1)C(=O)Nc1cccc(C)c1
24 | 11500 | – | – | – | Cc1ccc(NC(=O)NCc2ccc(-c3[nH]nc4c3Cc3cc(CN5CCN(C)CC5)ccc3-4)s2)cc1
96 | 44 | – | – | – | Cc1cccc(NC(=O)N(C)Cc2ccc(-c3n[nH]c4c3Cc3ccc(CN5CCN(C)CC5)cc3-4)s2)c1
9750 | 2820 | – | – | – | Cc1cccc(NC(=O)N(Cc2ccc(-c3[nH]nc4c3Cc3cc(CN5CCN(C)CC5)ccc3-4)s2)C(C)C)c1
